Measured values published in PMC8485799, “Synthesis and Antiprotozoal Profile of 3,4,5‐Trisubstituted Isoxazoles” (ChemistryOpen, 2021).

Key:
[1] = system: promastigote forms of Leishmania amazonensis (WHOM/BR/75/JOSEFA strain); assay: Antiproliferative assay (XTT), promastigote forms, 72 h; type: cell-based; conditions: for IC50: Leishmania amazonensis, promastigote form, 72 h, XTT, read-out: L. amazonensis IC50; for SIL-F, selectivity index (Fibroblast CC50/L. amazonensis IC50): fibroblast vs promastigote; for SIL-M, selectivity index (Macrophages CC50/L. amazonensis IC50): macrophages vs promastigote
Description: (§1) The antiproliferative activity was determined in promastigote forms of Leishmania amazonensis (WHOM/BR/75/JOSEFA strain) and epimastigote forms of Trypanosoma cruzi (Y strain). The promastigote forms of L. amazonensis were cultured in Warren medium (brain heart infusion, hemin, and folic acid; pH 7.4) supplemented with 10 % fetal bovine serum (FBS) at 25 °C. The epimastigote forms of T.cruzi were cultured in LIT medium (liver infusion tryptose; hemin, and folic acid; pH 7.4) supplemented with 10 % FBS at 28 °C. Cytotoxicity in mammalian cells was determined in fibroblast line (L929) and macrophages (J774 A1). Fibroblasts were cultured in DMEM medium (pH 7.2) supplemented with 10 % FBS at 37 °C in a 5 % CO2 atmosphere. Macrophages were cultured in RPMI‐1640 (pH 7.2) medium supplemented with 10 % FBS at 37 °C in a 5 % CO2 atmosphere.
(§2) Stock solutions of the compounds were prepared in DMSO and then diluted in the respective medium.
(§3) Promastigote forms (1×10^6 parasites.mL^−1) were cultured in 96‐well plates in the presence and absence of different concentrations of compounds diluted in Warren medium supplemented with 10 % FBS and incubated for 72 h. The epimastigote forms (1×10^6 parasites.mL^−1) were cultured in 96‐well plates in the presence and absence of different concentrations of compounds diluted in LIT medium supplemented with 10 % FBS and incubated for 96 h. After treatment, the parasites were incubated with a solution of 2,3‐bis(2‐methoxy‐4‐nitro‐5‐sulfophenyl)‐2H‐tetrazolium‐5‐carboxanilide (XTT; 0.5 mg.mL^−1) and phenazine methanesulfonate activator (PMS; 0.06 mg.mL^−1) in PBS for 4 h. Then, the absorbance was read in a microplate reader (Bio Tek‐Power Wave XS) at 450 nm.[20] The percentage of viable parasites was calculated in relation to the control in order to determine the concentration that inhibits 50 % of the protozoa (IC50). The control groups of each experiment received the same experimental conditions as the treated groups (cell concentration used, temperature, and incubation time).

[2] = system: epimastigote forms of Trypanosoma cruzi (Y strain); assay: Antiproliferative assay (XTT), epimastigote forms, 96 h; type: cell-based; conditions: for IC50: Trypanosoma cruzi, epimastigote form, 96 h, XTT, read-out: T. cruzi IC50; for SIT-F, selectivity index (Fibroblast CC50/T. cruzi IC50): fibroblast vs epimastigote; for SIT-M, selectivity index (Macrophages CC50/T. cruzi IC50): macrophages vs epimastigote
Description: as §1, §2, §3

[3] = Cytotoxicity assay in mammalian cells (MTT), fibroblasts, 72 h; type: cell-based; conditions: mouse, L929 fibroblast cells, pH 7.2; 50 % inhibition of fibroblast growth, 72 h, MTT
Description: as §1, §2
(§4) Fibroblast cell (2.5×10^5 cells.mL^−1) suspensions were prepared in DMEM medium supplemented with 10 % FBS and added to 96‐well plates. Then, the plates were incubated at 37 °C in a CO2 atmosphere for 24 h to obtain confluent cell growth. After incubation, cells were treated with different concentrations of compounds diluted in DMEM for 72 h or left untreated. Macrophage (5×10^5 cells.mL^−1) suspensions were prepared in RPMI‐1640 medium supplemented with 10 % FBS and added to 96‐well plates. Then, the plates were incubated at 37 °C in a CO2 atmosphere for 24 h to obtain confluent cell growth. After incubation, cells were treated with different concentrations of compounds diluted in RPMI‐1640 for 48 h or left untreated. After treatment, the medium was removed, and cells were incubated with MTT (2 mg.mL^−1) for 4 h. Then, DMSO was added for solubilization of the formazan and analyzed with a reading microplate reader (BIO‐TEK PowerWave XS spectrophotometer) at […].[20] The percentage of viable cells was calculated in relation to the untreated control group to determine the cytotoxic concentration in 50 % of the cells (CC50). The control groups of each experiment received the same experimental conditions as the treated groups (cell concentration used, temperature, CO2, and incubation time).

[4] = Cytotoxicity assay in mammalian cells (MTT), macrophages, 48 h; type: cell-based; conditions: mouse, J774 A1 macrophages, pH 7.2; 50 % inhibition of macrophages growth, 48 h, MTT
Description: as §1, §2, §4

SMILES	IC50 [2]	melting point	IC50 [1]	SIL-F, selectivity index (Fibroblast CC50/L. amazonensis IC50) [1]	SIL-M, selectivity index (Macrophages CC50/L. amazonensis IC50) [1]	SIT-F, selectivity index (Fibroblast CC50/T. cruzi IC50) [2]	SIT-M, selectivity index (Macrophages CC50/T. cruzi IC50) [2]	CC50 at 72 h [3]	CC50 at 48 h [4]
O=C(N/N=C/c1ccccc1)c1noc(-c2ccc(Cl)cc2)c1CNc1ccccc1 [4 da]	49.7 ± 2.2 µM	189.3 to 191.8 °C	48.6 ± 2.8 µM	5.46	4.85	5.34	4.74	266 ± 5.9 µM	236 ± 9.6 µM
O=C(N/N=C/c1ccccc1)c1noc(-c2ccc(Cl)cc2)c1CNc1ccc(Cl)cc1 [4 db]	71 ± 4.7 µM	167.5 to 169.3 °C	67.4 ± 3.9 µM	6.00	5.86	5.70	5.56	404.7 ± 4 µM	395 ± 9.9 µM
COc1ccc(NCc2c(C(=O)N/N=C/c3ccccc3)noc2-c2ccc(Cl)cc2)cc1 [4 dc]	65.9 ± 6.1 µM	176.3 to 177.1 °C	54.3 ± 2.7 µM	5.45	4.50	4.49	3.71	296 ± 9 µM	245 ± 7.9 µM
O=C(N/N=C/c1ccccn1)c1noc(-c2ccc([N+](=O)[O-])cc2)c1CNc1ccccc1 [5 aa, 3‐[(2E)‐N'‐(2‐pyridinylmethylene)hydrazinecarbonyl]‐4‐(phenyl)aminomethyl‐5‐(4‐nitrophenyl)isoxazole]	123 ± 10.9 µM	223.8 to 225.5 °C	126 ± 2.1 µM	3.24	3.09	3.31	3.16	407.3 ± 3.9 µM	388 ± 7.9 µM
O=C(N/N=C/c1ccc(-c2cccs2)s1)c1noc(-c2ccc([N+](=O)[O-])cc2)c1CNc1ccccc1 [6 aa, 3‐[(2E)‐N'‐(2,2'‐bithienyl‐5‐methylene)hydrazinecarbonyl]‐4‐(phenyl)aminomethyl‐5‐(4‐nitrophenyl)isoxazole]	38.4 ± 2.1 µM	232.5 to 233.9 °C	32.9 ± 0.9 µM	8.74	6.37	7.48	5.46	287 ± 7.3 µM	210 ± 9.6 µM
O=C(N/N=C/c1ccc(-c2cccs2)s1)c1noc(-c2ccccc2)c1CNc1ccc(Cl)cc1 [6 bb]	19 ± 0.7 µM	211.1 to 213.9 °C	18.4 ± 1.2 µM	12.31	10.22	11.92	9.90	226 ± 8.7 µM	188 ± 7.4 µM
COc1ccc(NCc2c(C(=O)N/N=C/c3ccc(-c4cccs4)s3)noc2-c2ccccc2)cc1 [6 bc]	18.1 ± 2.4 µM	165.5 to 167 °C	17.2 ± 3.1 µM	11.5	9.91	10.9	9.42	198 ± 5.9 µM	170 ± 3.3 µM
O=C(N/N=C/c1ccc(-c2cccs2)s1)c1noc(-c2ccc(Cl)cc2)c1CNc1ccccc1 [6 da]	27.2 ± 2.5 µM	208.4 to 209.9 °C	28 ± 1.3 µM	12.39	11.14	12.76	11.47	347 ± 8.4 µM	312 ± 4.3 µM
COc1ccc(NCc2c(C(=O)N/N=C/c3ccc(-c4cccs4)s3)noc2-c2ccc(Cl)cc2)cc1 [6 dc]	30.5 ± 1.6 µM	199.9 to 202.7 °C	32.7 ± 3 µM	12.16	9.45	13.0	10.1	398 ± 7.8 µM	309 ± 8 µM

More lines, main results first:

IC50 [2]	melting point	SMILES	IC50 [1]	SIL-F, selectivity index (Fibroblast CC50/L. amazonensis IC50) [1]	SIL-M, selectivity index (Macrophages CC50/L. amazonensis IC50) [1]	SIT-F, selectivity index (Fibroblast CC50/T. cruzi IC50) [2]	SIT-M, selectivity index (Macrophages CC50/T. cruzi IC50) [2]	CC50 at 72 h [3]	CC50 at 48 h [4]
33.6 ± 4.4 µM	194.8 to 195.6 °C	O=C(N/N=C/c1ccccn1)c1noc(-c2ccccc2)c1CNc1ccccc1 [5 ba]	35.8 ± 4.8 µM	9.20	8.47	9.80	9.02	330 ± 5.6 µM	303 ± 9.5 µM
26.9 ± 0.9 µM	209.3 to 211.7 °C	O=C(N/N=C/c1ccccn1)c1noc(-c2ccccc2)c1CNc1ccc(Cl)cc1 [5 bb]	27.8 ± 4.1 µM	12.38	11.01	12.57	11.18	338 ± 8.6 µM	301 ± 5.9 µM
69.5 ± 3.7 µM	157.7 to 159.6 °C	O=C(N/N=C/c1ccccn1)c1noc(-c2ccc(F)cc2)c1CNc1ccccc1 [5 ca]	74.8 ± 2.9 µM	5.38	5.01	5.79	5.38	403 ± 8.6 µM	374 ± 5.8 µM
39.4 ± 3.1 µM	202.4 to 203.9 °C	O=C(N/N=C/c1ccccn1)c1noc(-c2ccc(F)cc2)c1CNc1ccc(Cl)cc1 [5 cb]	22.6 ± 5 µM	6.81	4.96	3.91	2.84	154 ± 7.8 µM	112 ± 6.8 µM
72.6 ± 3.8 µM	180.5 to 182.9 °C	O=C(N/N=C/c1ccccn1)c1noc(-c2ccc(Cl)cc2)c1CNc1ccccc1 [5 da]	69 ± 8.7 µM	4.32	4.19	4.10	3.98	298 ± 5.7 µM	289 ± 9.5 µM
97.3 ± 3.6 µM	175.7 to 176.4 °C	O=C(N/N=C/c1ccccn1)c1noc(-c2ccc(Cl)cc2)c1CNc1ccc(Cl)cc1 [5 db]	87.9 ± 2 µM	2.30	2.26	2.08	2.04	203 ± 3.1 µM	198 ± 4.6 µM
17.9 ± 0.7 µM	210.4 to 212.4 °C	COc1ccc(NCc2c(C(=O)N/N=C/c3ccccn3)noc2-c2ccc(Cl)cc2)cc1 [5 dc]	17.4 ± 2 µM	6.17	5.67	6.00	5.51	107 ± 2.2 µM	98.6 ± 2.3 µM
